Where two headings read alike, the source gives them in different places. Bridge positions count the residues as written; N and C are the ends. Peptide text beside a SMILES is read from it.
Assays:
[1] = test system: Colletotrichum graminicola
Saccharomyces cerevisiae = assay: Growth inhibition by hairpin peptide alone, Saccharomyces cerevisiae; type: cell-based; settings: hairpin peptide on its own
Source text: Some α-hairpinin and β-hairpin peptides show efficacy on their own against pathogens at a concentration higher than the concentration used in a combination with a plant defensin.

Row | Molecule | IC50 [1] [µM] | IC50 (Trichophyton rubrum) [µM] | IC50 (Fusarium graminearum) [µM] | IC50 (Candida albicans) [µM] | IC50 (Saccharomyces cerevisiae) [µM] | IC50 ([1]; read-out: IC50 Cgr) [µM] | IC50 (Fusarium graminearum; read-out: IC50 Fgr) [µM] | IC50 (Candida albicans; read-out: IC50 C. alb) [µM]
1 | CC[C@H](C)[C@@H]1NC(=O)[C@H](CCCCN)NC(=O)[C@H]([C@@H](C)CC)NC(=O)[C@H](CCC(N)=O)NC(=O)[C@H](CCCNC(=N)N)NC(=O)[C@@H](NC(=O)[C@@H](NC(=O)[C@H](CO)NC(=O)[C@@H](N)CCCNC(=N)N)C(C)C)CSSC[C@@H](C(=O)N[C@H](C(=O)N[C@@H](CC(N)=O)C(=O)N[C@@H](CCCNC(=N)N)C(=O)N2CCC[C@H]2C(=O)N[C@@H](Cc2ccc(O)cc2)C(=O)O)[C@@H](C)O)NC(=O)[C@H](CCCCN)NC(=O)[C@H](Cc2ccc(O)cc2)NC(=O)[C@H](Cc2ccc(O)cc2)NC(=O)[C@@H]2CSSC[C@H](NC1=O)C(=O)N[C@@H](CCCNC(=N)N)C(=O)N[C@@H](CCCNC(=N)N)C(=O)N[C@@H](CCCNC(=N)N)C(=O)NCC(=O)NCC(=O)N2 [Androctonin] (H-RSVCRQIKICRRRGGCYYKCTNRPY-OH; disulfide 4-20, 10-16 (inferred); N-terminus and C-terminus assumed) | 13 | 1 | 7 | 7 | – | – | – | –
2 | C[C@@H](O)[C@@H]1NC(=O)[C@H](CCC(N)=O)NC(=O)[C@@H]2CSSC[C@H](NC(=O)[C@H](CCC(N)=O)NC(=O)[C@H](CCCNC(=N)N)NC(=O)[C@H](CCC(N)=O)NC(=O)[C@H](CCCNC(=N)N)NC(=O)[C@H](CCC(=O)O)NC(=O)[C@@H]3CCCN3C(=O)[C@H](CO)NC(=O)[C@H](CCC(N)=O)NC(=O)[C@H](CCC(=O)O)NC(=O)[C@H](CCC(N)=O)NC1=O)C(=O)N[C@@H](CCC(N)=O)C(=O)N[C@@H](CCC(N)=O)C(=O)N[C@@H](CCCNC(=N)N)C(=O)N[C@H](C(=O)N[C@@H](CCC(=O)O)C(=O)N[C@@H](CCCNC(=N)N)C(=O)N[C@@H](CCC(N)=O)C(=O)N[C@@H](Cc1ccc(O)cc1)C(=O)N[C@@H](CCCCN)C(=O)N[C@@H](CCC(=O)O)C(=O)O)CSSC[C@H](NC(=O)[C@H](CCCNC(=N)N)NC(=O)[C@H](Cc1c[nH]cn1)NC(=O)[C@H](Cc1ccc(O)cc1)NC(=O)[C@H](CCC(N)=O)NC(=O)[C@H](CCC(N)=O)NC(=O)[C@H](CCC(N)=O)NC(=O)[C@@H]1CCCN1C(=O)[C@@H](N)CC(=O)O)C(=O)N[C@@H](CCC(N)=O)C(=O)N[C@@H](CCCNC(=N)N)C(=O)N[C@@H](CCCNC(=N)N)C(=O)N2 [Cil_HPN_14F] (H-DPQQQYHRCQRRCQTQEQSPERQRQCQQRCERQYKE-OH; disulfide 9-30, 13-26 (inferred); N-terminus and C-terminus assumed) | – | – | – | – | 12 | – | – | –
3 | CSCC[C@@H]1NC(=O)[C@@H]2CSSC[C@H](NC(=O)[C@H](CCC(=O)O)NC(=O)[C@H](CCCNC(=N)N)NC(=O)[C@H](CCCNC(=N)N)NC(=O)[C@@H](NC(=O)[C@H](CCC(=O)O)NC(=O)[C@H](CCCCN)NC(=O)CNC(=O)CNC(=O)CNC(=O)CNC(=O)[C@@H](N)Cc3c[nH]cn3)CSSC[C@@H](C(=O)N[C@@H](CCC(=O)O)C(=O)N[C@@H](Cc3c[nH]c4ccccc34)C(=O)N[C@@H](CCCNC(=N)N)C(=O)N[C@@H](CCCNC(=N)N)C(=O)N[C@@H](Cc3c[nH]cn3)C(=O)N[C@@H](CCC(=O)O)C(=O)O)NC(=O)[C@H](CCC(N)=O)NC(=O)[C@H](CCCNC(=N)N)NC1=O)C(=O)N[C@@H](CCCNC(=N)N)C(=O)NCC(=O)N[C@@H](Cc1ccc(O)cc1)C(=O)N[C@@H](CCCNC(=N)N)C(=O)N[C@@H](CC(=O)O)C(=O)N[C@@H](CCC(=O)O)C(=O)N1CCC[C@H]1C(=O)N[C@@H](Cc1c[nH]c3ccccc13)C(=O)N[C@@H](CCCNC(=N)N)C(=O)N[C@@H](CCCCN)C(=O)N[C@@H](CCC(N)=O)C(=O)N[C@@H](CCC(=O)O)C(=O)N2 [Osa_HPN_86B] (H-HGGGGKECRRECRGYRDEPWRKQECMRQCEWRRHE-OH; disulfide 8-29, 12-25 (inferred); N-terminus and C-terminus assumed) | 13 | – | 18 | 9 | 8 | – | – | –
4 | CC(C)[C@@H]1NC(=O)[C@H](CCCNC(=N)N)NC(=O)[C@H](Cc2ccccc2)NC(=O)[C@@H](NC(=O)[C@H](Cc2c[nH]c3ccccc23)NC(=O)[C@H](CCCNC(=N)N)NC(=O)[C@@H](N)CCCNC(=N)N)CSSC[C@@H](C(=O)N[C@@H](CCCNC(=N)N)C(N)=O)NC(=O)[C@H](CCCCN)NC(=O)[C@H](CCCNC(=N)N)NC(=O)[C@H](Cc2ccc(O)cc2)NC(=O)[C@@H]2CSSC[C@H](NC1=O)C(=O)N[C@@H](Cc1ccc(O)cc1)C(=O)N[C@@H](CCCNC(=N)N)C(=O)NCC(=O)N[C@@H](Cc1ccccc1)C(=O)N2 [Polyphemusin I] (H-RRWCFRVCYRGFCYRKCR-NH2; disulfide 4-17, 8-13; N-terminus and C-terminus assumed) | 6 | 1 | 3 | 4 | – | – | – | –
5 | CSCC[C@@H]1NC(=O)[C@H](CC(C)C)NC(=O)[C@@H]2CSSC[C@H](NC(=O)[C@H](CCCNC(=N)N)NC(=O)[C@H](CCC(=O)O)NC(=O)[C@H](CCCNC(=N)N)NC(=O)[C@@H](NC(=O)[C@H](CCCCN)NC(=O)[C@H](CCCNC(=N)N)NC(=O)[C@H](CCCNC(=N)N)NC(=O)CNC(=O)[C@H](CCC(=O)O)NC(=O)CN)CSSC[C@@H](C(=O)N[C@@H](CCCCN)C(=O)N[C@@H](CO)C(=O)N[C@@H](CCCNC(=N)N)C(=O)N[C@@H](CCC(=O)O)C(=O)N[C@@H](CCC(N)=O)C(=O)N[C@@H](CCC(=O)O)C(=O)O)NC(=O)[C@H](CC(=O)O)NC1=O)C(=O)N[C@@H](CCC(=O)O)C(=O)N[C@@H](CCCNC(=N)N)C(=O)N[C@@H](Cc1c[nH]cn1)C(=O)N[C@@H](Cc1c[nH]cn1)C(=O)N[C@@H](CCCNC(=N)N)C(=O)NCC(=O)NCC(=O)N[C@@H](CC(=O)O)C(=O)N[C@@H](Cc1c[nH]c3ccccc13)C(=O)N[C@@H](Cc1c[nH]c3ccccc13)C(=O)N[C@@H](CCC(=O)O)C(=O)N[C@@H](CCCCN)C(=O)N[C@@H](CCC(N)=O)C(=O)N[C@@H](CCCNC(=N)N)C(=O)N2 [Sbi_HPN_104C] (H-GEGRRKCRERCERHHRGGDWWEKQRCLMDCKSREQE-OH; disulfide 7-30, 11-26 (inferred); N-terminus and C-terminus assumed) | 16 | – | 7 | 7 | > 20 | – | – | –
6 | CC(C)[C@@H]1NC(=O)[C@@H]2CSSC[C@H](NC(=O)[C@H](CCC(N)=O)NC(=O)[C@H](CCCCN)NC(=O)[C@H](CCC(N)=O)NC(=O)[C@@H](NC(=O)[C@H](CCCNC(=N)N)NC(=O)[C@@H](N)CC(=O)O)CSSC[C@@H](C(=O)N[C@@H](CCCNC(=N)N)C(=O)N[C@@H](CCCNC(=N)N)C(=O)NCC(=O)N[C@@H](CCCNC(=N)N)C(=O)NCC(=O)N[C@@H](CO)C(=O)O)NC(=O)[C@H](CC(=O)O)NC(=O)[C@H](CCCNC(=N)N)NC1=O)C(=O)N[C@@H](CCC(N)=O)C(=O)N[C@@H](Cc1c[nH]cn1)C(=O)N[C@@H](Cc1ccc(O)cc1)C(=O)N[C@@H](CO)C(=O)N[C@@H](CC(=O)O)C(=O)N[C@@H](Cc1c[nH]c3ccccc13)C(=O)N[C@@H](CC(=O)O)C(=O)N[C@@H](CCCCN)C(=O)N[C@@H](CCCCN)C(=O)N[C@@H](CCC(N)=O)C(=O)N[C@@H](CCC(N)=O)C(=O)N2 [Sbi_HPN_104I] (H-DRCQKQCQHYSDWDKKQQCVRDCRRGRGS-OH; disulfide 3-23, 7-19 (inferred); N-terminus and C-terminus assumed) | – | – | – | – | > 20 | – | – | –
7 | CSCC[C@@H]1NC(=O)[C@H](CCCNC(=N)N)NC(=O)[C@@H](NC(=O)[C@H](Cc2c[nH]c3ccccc23)NC(=O)[C@H](CCC(N)=O)NC(=O)[C@H](CC(C)C)NC(=O)[C@H](CC(=O)O)NC(=O)CNC(=O)[C@@H](N)CCCCN)CSSC[C@@H](C(=O)N[C@@H](CCCNC(=N)N)C(=O)N[C@@H](CCC(N)=O)C(=O)N[C@@H](CCCNC(=N)N)C(=O)N[C@@H](Cc2c[nH]cn2)C(=O)N[C@@H](CCCNC(=N)N)C(=O)NCC(=O)O)NC(=O)[C@H](CCC(=O)O)NC(=O)[C@H](CCCNC(=N)N)NC(=O)[C@H](CCC(=O)O)NC(=O)[C@@H]2CSSC[C@H](NC(=O)CNC1=O)C(=O)N[C@@H](CCC(N)=O)C(=O)N[C@@H](Cc1c[nH]c3ccccc13)C(=O)N[C@@H](CCC(N)=O)C(=O)N[C@@H](Cc1ccc(O)cc1)C(=O)NCC(=O)N[C@@H](CCCCN)C(=O)N[C@@H](CC(=O)O)C(=O)N[C@@H](CCC(N)=O)C(=O)NCC(=O)N[C@@H](CCCNC(=N)N)C(=O)N[C@@H](CCCNC(=N)N)C(=O)N[C@@H](CO)C(=O)N[C@@H](CCC(=O)O)C(=O)N2 [Sit_HPN_100A] (H-KGDLQWCRMGCQWQYGKDQGRRSECERECRQRHRG-OH; disulfide 7-29, 11-25 (inferred); N-terminus and C-terminus assumed) | 14 | 20 | 8 | 8 | 8 | – | – | –
8 | EcAMP1: α-hairpinin peptide, SEQ ID NO:36, produced recombinantly in E. coli (GSGRGSCRSQCMRRHEDEPWRVQECVSQCRRRRGGGD; EcAMP1 Echinochloa crus-galli) | – | – | – | – | 8 | 20 | 7 | 8

Reference: patent publication US20190327965A1, “AGENTS AND METHODS FOR TREATMENT OF PATHOGENS” (Hexima Limited, priority 2014, published 2019)
